From ChEMBL document CHEMBL1201862, “PubChem BioAssay data set” (2004)
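1) Cells in 96-well plates. 2) Compound, 48 h, 5 concentrations. 3) Linear interpolation between surrounding doses. 4) Unreached endpoint = highest concentration. The concentration for 50% growth inhibition is given as GI50.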 Calls of active or inactive are those of the source. No stated cut-off is given here; in the data, active = GI50 up to about 1.1 µM and inactive = higher.

Legend:
Experiment in all cases: NCI tumour cell line growth inhibition, 48 h
[1] = tested on: SNB-19
[2] = tested on: RXF 393
[3] = tested on: IGROV-1
[4] = tested on: K562
[5] = tested on: OVCAR-4
[6] = tested on: SK-OV-3
[7] = tested on: 786-0
[8] = tested on: HCT-15
[9] = tested on: ACHN
[10] = tested on: U-251
[11] = tested on: NCI-H460
[12] = tested on: Malme-3M
[13] = tested on: UO-31
[14] = tested on: UACC-257
[15] = tested on: CAKI-1
[16] = tested on: SK-MEL-28
[17] = tested on: LOX IMVI
[18] = tested on: MOLT-4

Structure (SMILES)	GI50 [1]	GI50 [2]	GI50 [3]	GI50 [4]	GI50 [5]	GI50 [6]	GI50 [7]	GI50 [8]	GI50 [9]	GI50 [10]	GI50 [11]	GI50 [12]	GI50 [13]	GI50 [14]	GI50 [15]	GI50 [16]	GI50 [17]	GI50 [18]
Cc1cc(N(CCC#N)CCC#N)ccc1/C=C1\N=C(c2cc([N+](=O)[O-])ccc2Cl)N(NC(=O)c2ccc(/N=C\c3ccc(N(CCC#N)S(C)(=O)=O)cc3C)cc2)C1=O	> 100 µM (inactive)	> 100 µM (inactive)	> 100 µM (inactive)	31.9 µM (inactive)	> 100 µM (inactive)	> 100 µM (inactive)	> 100 µM (inactive)	33 µM	89.9 µM (inactive)	> 100 µM (inactive)	> 100 µM (inactive)	> 100 µM (inactive)	> 100 µM (inactive)	63.4 µM (inactive)	> 100 µM (inactive)	> 100 µM (inactive)	> 100 µM (inactive)	
NCCCC(N/C=C1/N=C(c2ccccc2)OC1=O)C(=O)O (centres undefined)	> 100 µM (inactive)	> 100 µM (inactive)	> 100 µM (inactive)	34.4 µM (inactive)	> 100 µM (inactive)	> 100 µM (inactive)	> 100 µM (inactive)	> 100 µM	> 100 µM (inactive)	> 100 µM (inactive)	> 100 µM (inactive)	> 100 µM (inactive)	> 100 µM (inactive)	> 100 µM (inactive)		> 100 µM (inactive)	> 100 µM (inactive)	> 100 µM (inactive)
COC(=O)c1cc2c3c(ccc2[nH]1)N(C(=O)c1cc2c4c(ccc2[nH]1)N(C(=O)c1cc2c5c(ccc2[nH]1)N(C(N)=O)CC5)CC4)CC3	2.61 µM (inactive)	2.17 µM (inactive)	3.37 µM (inactive)	2.44 µM (inactive)	3.55 µM (inactive)	2.1 µM (inactive)	3.05 µM (inactive)	12 µM	3.13 µM (inactive)	2.17 µM (inactive)	3.24 µM (inactive)	1.24 µM (inactive)	3.94 µM (inactive)	> 22.6 µM (inactive)	2 µM (inactive)		1.88 µM (inactive)	> 23 µM (inactive)
COc1cc(C2(C)SCCCS2)cc(OC)c1OC	> 100 µM (inactive)		> 100 µM (inactive)	> 100 µM (inactive)	> 100 µM (inactive)	> 100 µM (inactive)	> 100 µM (inactive)	> 100 µM	> 100 µM (inactive)	> 100 µM (inactive)	> 100 µM (inactive)	> 100 µM (inactive)	> 100 µM (inactive)	> 100 µM (inactive)	> 100 µM (inactive)	> 100 µM (inactive)	> 100 µM (inactive)	> 100 µM (inactive)
Cc1ccc(/C=C(\NC(=O)c2ccccc2)c2nc3ccccc3[nH]2)cc1	39.4 µM (inactive)	> 100 µM (inactive)	> 100 µM (inactive)		70.5 µM (inactive)		39.3 µM (inactive)	45.6 µM	47.5 µM (inactive)	41.2 µM (inactive)	37.2 µM (inactive)	45.5 µM (inactive)	48.9 µM (inactive)	35.3 µM (inactive)		71.9 µM (inactive)		
CCOC(=O)C(=O)Nc1ccc([N+](=O)[O-])cc1C#N	> 100 µM (inactive)	> 100 µM (inactive)	> 100 µM (inactive)	> 100 µM (inactive)	> 100 µM (inactive)	> 100 µM (inactive)	> 100 µM (inactive)	> 100 µM	> 100 µM (inactive)	> 100 µM (inactive)	> 100 µM (inactive)	> 100 µM (inactive)	> 100 µM (inactive)	> 100 µM (inactive)	> 100 µM (inactive)	> 100 µM (inactive)	> 100 µM (inactive)	> 100 µM (inactive)
COC(=O)C1CC(C(=O)OC)c2nc3cc(C)ccc3nc21 (centres undefined)	> 100 µM (inactive)		> 100 µM (inactive)	> 100 µM (inactive)	> 100 µM (inactive)	> 100 µM (inactive)	> 100 µM (inactive)	> 100 µM	> 100 µM (inactive)	> 100 µM (inactive)	> 100 µM (inactive)	> 100 µM (inactive)	> 100 µM (inactive)	58.3 µM (inactive)	> 100 µM (inactive)	> 100 µM (inactive)	> 100 µM (inactive)	> 100 µM (inactive)
ClC(/N=N/c1ccccc1)=N/Nc1ccccc1	> 100 µM (inactive)	> 100 µM (inactive)	> 100 µM (inactive)	38.3 µM (inactive)	> 100 µM (inactive)	> 100 µM (inactive)	> 100 µM (inactive)		34.8 µM (inactive)	> 100 µM (inactive)	> 100 µM (inactive)	> 100 µM (inactive)		> 100 µM (inactive)	33.6 µM (inactive)	> 100 µM (inactive)	58.5 µM (inactive)	> 100 µM (inactive)
COC(=O)C(C(=O)C(=O)Nc1ccc(C)cc1C)c1nc2ccc([N+](=O)[O-])cc2nc1O (centres undefined)	> 100 µM (inactive)	> 100 µM (inactive)	> 100 µM (inactive)	78.7 µM (inactive)	> 100 µM (inactive)	> 100 µM (inactive)	> 100 µM (inactive)	> 100 µM	> 100 µM (inactive)	> 100 µM (inactive)	> 100 µM (inactive)	> 100 µM (inactive)	76.2 µM (inactive)	> 100 µM (inactive)	> 100 µM (inactive)	> 100 µM (inactive)	> 100 µM (inactive)	> 100 µM (inactive)
CCOC(=O)c1sc2c(c1O)c(=O)n(-c1ccccc1)c(=S)n2-c1ccccc1	> 100 µM (inactive)	> 100 µM (inactive)	> 100 µM (inactive)	42.8 µM (inactive)	> 100 µM (inactive)		> 100 µM (inactive)	78 µM	81.1 µM (inactive)	76.6 µM (inactive)	> 100 µM (inactive)	> 100 µM (inactive)	87.3 µM (inactive)	> 100 µM (inactive)		> 100 µM (inactive)	> 100 µM (inactive)	
CCCOc1ccc(/C=C/c2cc(OC)c(OC)c(OC)c2)cc1	0.681 µM (active)	0.254 µM (active)	0.399 µM (active)	0.0733 µM (active)	0.971 µM (active)		0.481 µM (active)	0.348 µM	0.697 µM (active)	0.384 µM (active)	0.439 µM (active)	0.21 µM (active)	0.482 µM (active)	0.348 µM (active)	0.209 µM (active)	8.75 µM (inactive)	0.445 µM (active)	0.443 µM (active)
Cc1ccc2[nH]c3c4c5ccccc5nc-4c[nH]c3c2c1	17.3 µM (inactive)	13.8 µM (inactive)	15 µM (inactive)	12.6 µM (inactive)	22.1 µM (inactive)	12.6 µM (inactive)	17.1 µM (inactive)		16.7 µM (inactive)	14.8 µM (inactive)	15.3 µM (inactive)	19.1 µM (inactive)	16.7 µM (inactive)	18.1 µM (inactive)	15.8 µM (inactive)	17.7 µM (inactive)	17.2 µM (inactive)	16.2 µM (inactive)
CN1CC[C@]2(C)c3cc(O)ccc3CC3CCCC1C32C (some centres undefined)	> 100 µM (inactive)	> 100 µM (inactive)	> 100 µM (inactive)	> 100 µM (inactive)		> 100 µM (inactive)	> 100 µM (inactive)	> 100 µM	> 100 µM (inactive)	> 100 µM (inactive)	> 100 µM (inactive)	> 100 µM (inactive)	89.7 µM (inactive)	> 100 µM (inactive)	> 100 µM (inactive)	> 100 µM (inactive)	> 100 µM (inactive)	> 100 µM (inactive)
Cc1nc(N)nc(N)c1CCCCc1ccc(N)cc1	6.87 µM (inactive)		3.35 µM (inactive)	0.321 µM (active)	10.6 µM (inactive)	2.88 µM (inactive)	0.728 µM (active)	4.09 µM	4.12 µM (inactive)	3.03 µM (inactive)	0.959 µM (active)	1.96 µM (inactive)	13.2 µM (inactive)	5.07 µM (inactive)	9.66 µM (inactive)	10.1 µM (inactive)	1.09 µM (active)	1.58 µM (inactive)
O=C(O)C12C3CCC(C3)C1(C(=O)O)C1CCC2C1 (centres undefined)	> 100 µM (inactive)	34.4 µM (inactive)	> 100 µM (inactive)	89.7 µM (inactive)		> 100 µM (inactive)	> 100 µM (inactive)	39.8 µM	> 100 µM (inactive)		81.3 µM (inactive)	> 100 µM (inactive)	> 100 µM (inactive)	> 100 µM (inactive)	> 100 µM (inactive)	> 100 µM (inactive)	23.7 µM (inactive)	> 100 µM (inactive)
CNC(=O)NCNC(=O)NC			> 100 µM (inactive)	> 100 µM (inactive)	> 100 µM (inactive)	> 100 µM (inactive)	> 100 µM (inactive)	> 100 µM		> 100 µM (inactive)	> 100 µM (inactive)	> 100 µM (inactive)		> 100 µM (inactive)	> 100 µM (inactive)	> 100 µM (inactive)	> 100 µM (inactive)	> 100 µM (inactive)
CCO[C@]12C[C@H](OC)[C@@]3(O)CC(C1[C@H]3OCc1ccccc1)C13C4C2[C@H](OC)C1[C@](COC)(CN4CC)[C@H](O)C[C@@H]3OC (some centres undefined)	> 100 µM (inactive)	> 100 µM (inactive)	> 100 µM (inactive)	> 100 µM (inactive)	> 100 µM (inactive)	> 100 µM (inactive)	7.38 µM (inactive)	> 100 µM	> 100 µM (inactive)	> 100 µM (inactive)	> 100 µM (inactive)		> 100 µM (inactive)	> 100 µM (inactive)		> 100 µM (inactive)	> 100 µM (inactive)	95.9 µM (inactive)
